Columns and labels:
Format in all cases: cell-based
Caco2 cells [1] = experiment: MTT assay cell viability, Caco2 cells
Protocol: (§1) Two cell lines were used in this study, Caco2 cells and HT-29 cells. Both of them are colorectal cancer cells. Caco2 cells and HT-29 cells were maintained in DMEM (or RPMI) supplemented with 20% or 10% fetal bovine serum (FBS; GIBCO), pH 7.4 at 37° C. with continuous circulation of 5% CO2 incubator. The medium was changed every 2 days and the cells were trypsinized using trypsin/EDTA when reaching 80%-90% confluence.
(§2) In this example, the effects of HCD, PG, and 5-FU on the viability of Caco2 cells and HT-29 cells were examined. The MTT assay was employed for this purpose. The MTT (3-(4-,5-dimethylthiazol-2-yl)-2,5-diphenyltetrazolium bromide) assay is a common colorimetric method in the field for cell viability analysis. MTT (yellow tetrazolium salt) is reduced to a purple formazan by living cells and detection to the purple formazan can be calculated as the cell viability.
(§3) Briefly, cells (Caco2 or HT-29) were seeded in 96-well plate (7×10^3 cell per well) and incubated overnight (37° C., 5% CO2).
(§4) On the other hand, in the pretreatment analysis, cells (Caco2 or HT-29) were seeded in 96-well plate (7×10^3 cell per well) and incubated overnight (37° C., 5% CO2). In according to the treatments listed in the Table 1, Cells were pre-treated by HCD or PG for 6, 12, 24, 36, or 48 hr and then were treated by 5-FU for additional 24 hr.

HT-29 cells [2] = experiment: Cell cycle analysis by flow cytometer (PI staining), HT-29 cells
Protocol: (§5) The results of Example 2 in cell viability hinted the effects of HCD, PG, and 5-FU on arresting cell cycle. In this example, the phase of cell cycle of Caco2 and HT-29 cells after the treatment listed in Table 1 was determined by flow cytometer. Briefly, 7×10^4 cells per well were inoculated in 12-wells plate and incubated overnight at 37° C., 5% CO2. Then, cells were treated according to the treatment listed in Table 1 by indicated time period. After treatment, cells were harvested by trypsin and fixed with 70% ethanol at −20° C. for at least 3 hr. The cells were washed in cold PBS twice and then incubated with 1 mL (v/v) staining solution (20 μg/mL propidium iodide (PI), 0.1% Triton X-100, 0.2 mg/mL Rnase) at 37° C. for 30 minutes. Lastly, cells were analyzed by flow cytometer (Cytomics™ FC500, Backman, Fullerton, Calif., USA). Data from 10,000 cells were collected for each experimental group.

HT-29 cells [3] = experiment: MTT assay cell viability, HT-29 cells
Protocol: as §1, §2, §3, §4

Caco2 cells [4] = experiment: Cell cycle analysis by flow cytometer (PI staining), Caco2 cells
Protocol: as §5

Compound: CCCCCC1=C/C(=C/c2[nH]c(-c3ccc[nH]3)cc2OC)N=C1C [PG, Prodigiosin]
- effect of pre-treating on efficacy of 5-FU in the subsequent treatment (MTT) (Caco2 cells [1]; Caco2, pre-treatment 6-48 hr, then 5-FU 2 μM 24 hr): significantly enhanced the efficacy of 5-FU
- IC50 (Caco2 cells [1]; Homo sapiens, Caco-2, Caco2 cells, 48 hr treatment): 2 µM
- G0/G1 (%) (HT-29 cells [2]; HT-29, 0.5 μM, 24 hr): 65.3 ± 5.66 %
- G2/M (%) (HT-29 cells [2]; HT-29, 0.5 μM, 24 hr): 11.65 ± 0.78%
- S (%) (HT-29 cells [2]; HT-29, 0.5 μM, 24 hr): 5.9 ± 1.13 %
- Sub G1 (%) (HT-29 cells [2]; HT-29, 0.5 μM, 24 hr): 14.65 ± 4.03 %
- G0/G1 (%) (HT-29 cells [2]; HT-29, 0.5 μM, 36 hr): 48.28 ± 6.29 %
- G2/M (%) (HT-29 cells [2]; HT-29, 0.5 μM, 36 hr): 5.8 ± 0.84%
- S (%) (HT-29 cells [2]; HT-29, 0.5 μM, 36 hr): 5.8 ± 0.68 %
- Sub G1 (%) (HT-29 cells [2]; HT-29, 0.5 μM, 36 hr): 37.88 ± 7.42 %
- G0/G1 (%) (HT-29 cells [2]; HT-29, 2 μM, 24 hr): 54.35 ± 5.02%
- G2/M (%) (HT-29 cells [2]; HT-29, 2 μM, 24 hr): 12.35 ± 2.33%
- S (%) (HT-29 cells [2]; HT-29, 2 μM, 24 hr): 9.85 ± 1.2%
- Sub G1 (%) (HT-29 cells [2]; HT-29, 2 μM, 24 hr): 20.05 ± 5.87 %
- G0/G1 (%) (HT-29 cells [2]; HT-29, 2 μM, 36 hr): 29.15 ± 3.18 %
- G2/M (%) (HT-29 cells [2]; HT-29, 2 μM, 36 hr): 14.4 ± 0.71 %
- S (%) (HT-29 cells [2]; HT-29, 2 μM, 36 hr): 12.3 ± 1.13 %
- Sub G1 (%) (HT-29 cells [2]; HT-29, 2 μM, 36 hr): 40.25 ± 3.32 %
- G0/G1 (%) (HT-29 cells [2]; HT-29, 5 μM, 24 hr): 49.8 ± 7.07%
- G2/M (%) (HT-29 cells [2]; HT-29, 5 μM, 24 hr): 13.25 ± 0.21%
- S (%) (HT-29 cells [2]; HT-29, 5 μM, 24 hr): 12.9 ± 0%
- Sub G1 (%) (HT-29 cells [2]; HT-29, 5 μM, 24 hr): 19.6 ± 7.95 %
- G0/G1 (%) (HT-29 cells [2]; HT-29, 5 μM, 36 hr): 27.85 ± 1.06 %
- G2/M (%) (HT-29 cells [2]; HT-29, 5 μM, 36 hr): 3.2 ± 0.85 %
- S (%) (HT-29 cells [2]; HT-29, 5 μM, 36 hr): 5.9 ± 0.42 %
- Sub G1 (%) (HT-29 cells [2]; HT-29, 5 μM, 36 hr): 61.85 ± 2.47 %
- cell cycle phases after pre-treatment then 5-FU (in words) (HT-29 cells [2]; HT-29, pre-treatment, then 5-FU): increase of sub G1 phase and decrease of G2/M phase
- effect of pre-treating on efficacy of 5-FU in the subsequent treatment (MTT) (HT-29 cells [3]; HT-29, pre-treatment 6-48 hr, then 5-FU 2 μM 24 hr): significantly enhanced the efficacy of 5-FU
- IC50 (HT-29 cells [3]; Homo sapiens, HT-29 cells, 36 hr treatment): 0.5 µM
- G0/G1 (%) (Caco2 cells [4]; Caco2, 0.5 μM, 36 hr): 51.3 ± 3.8%
- G2/M (%) (Caco2 cells [4]; Caco2, 0.5 μM, 36 hr): 14.93 ± 4.27%
- S (%) (Caco2 cells [4]; Caco2, 0.5 μM, 36 hr): 12.97 ± 0.49%
- Sub G1 (%) (Caco2 cells [4]; Caco2, 0.5 μM, 36 hr): 18.67 ± 2.06 %
- G0/G1 (%) (Caco2 cells [4]; Caco2, 0.5 μM, 48 hr): 53.43 ± 13.12%
- G2/M (%) (Caco2 cells [4]; Caco2, 0.5 μM, 48 hr): 15.9 ± 8.23%
- S (%) (Caco2 cells [4]; Caco2, 0.5 μM, 48 hr): 18.17 ± 7.05%
- Sub G1 (%) (Caco2 cells [4]; Caco2, 0.5 μM, 48 hr): 11.67 ± 4.07%
- G0/G1 (%) (Caco2 cells [4]; Caco2, 2 μM, 36 hr): 44.53 ± 7.05%
- G2/M (%) (Caco2 cells [4]; Caco2, 2 μM, 36 hr): 17.33 ± 1.95%
- S (%) (Caco2 cells [4]; Caco2, 2 μM, 36 hr): 14.33 ± 1.76%
- Sub G1 (%) (Caco2 cells [4]; Caco2, 2 μM, 36 hr): 21.47 ± 3.41 %
- G0/G1 (%) (Caco2 cells [4]; Caco2, 2 μM, 48 hr): 49.87 ± 9.56%
- G2/M (%) (Caco2 cells [4]; Caco2, 2 μM, 48 hr): 12.43 ± 4.48%
- S (%) (Caco2 cells [4]; Caco2, 2 μM, 48 hr): 15 ± 6.14%
- Sub G1 (%) (Caco2 cells [4]; Caco2, 2 μM, 48 hr): 18.77 ± 7.49%
- G0/G1 (%) (Caco2 cells [4]; Caco2, 5 μM, 36 hr): 37.9 ± 6.04 %
- G2/M (%) (Caco2 cells [4]; Caco2, 5 μM, 36 hr): 15.43 ± 7.86%
- S (%) (Caco2 cells [4]; Caco2, 5 μM, 36 hr): 14.23 ± 3.12%
- Sub G1 (%) (Caco2 cells [4]; Caco2, 5 μM, 36 hr): 30.07 ± 6.7 %
- G0/G1 (%) (Caco2 cells [4]; Caco2, 5 μM, 48 hr): 45.83 ± 3.3%
- G2/M (%) (Caco2 cells [4]; Caco2, 5 μM, 48 hr): 8.7 ± 2.07 %
- S (%) (Caco2 cells [4]; Caco2, 5 μM, 48 hr): 11.67 ± 2%
- Sub G1 (%) (Caco2 cells [4]; Caco2, 5 μM, 48 hr): 33.53 ± 6.73 %
- G2/M phase after pre-treatment then 5-FU (in words) (Caco2 cells [4]; Caco2, 12 and 24 hr pretreatment of 1 or 2 μM, then 5-FU): decreased
